Tested on: HeLa cells
Assay: Mitochondrial calcium elevation in histamine-stimulated HeLa cells (mitochondrially targeted aequorin luminescence)
Assay type: cell-based
Procedure: To test the effect of oleuropein (or oleuropein aglycone), quercetin and their combination in living cells, the inventors measured mitochondrial calcium elevation in HeLa cells. HeLa cells were purchased from ATCC. HeLa cells were seeded in 96-well plates at a density of 50000 cells per well in minimal essential medium (DMEM, Gibco), high glucose, +10% fetal calf serum.
Mitochondrial calcium measurements were carried out using Hela cells infected with the adenovirus (from Sirion biotech) expressing the mitochondrially targeted calcium sensor mitochondrial mutated aequorin (Montero et al., 2004). For aequorin reconstitution, 24 hours after infection, cells were incubated for 2 h at room temperature (22±° C.) in standard medium (145 mM NaCl, 5 mM KCl, 1 mM MgCl2, 1 mM CaCl2, 10 mM glucose and 10 mM Hepes, pH 7.4) with 1 μM wild-type coelenterazine.
For treatment, compounds were directly added to the cell culture or myotubes cultures 2 hours before measurements. Luminescence was measured at the FLIPR Tetra Aequorin (Molecular Devices). […] Calibration of the luminescence data into calcium concentration was carried out using an algorithm, as described previously (Alvarez & Montero, 2002). Custom module analysis based on Excel (Microsoft) and GhaphPad Prism 7.02 (GraphPad) software was used for quantification.

SMILES: C/C=C1/C(O)OC=C(C(=O)OC)[C@H]1CC(=O)OCCc1ccc(O)c(O)c1 (mixture of isomers) [oleuropein aglycone]
- synergism with quercetin to activate mitochondria via mitochondrial Ca2+ rise (measured effect of the combination vs. theoretical sum of the single effects) (3 μM + 3 μM quercetin, integrated mitochondrial calcium rise evoked by 100 μM histamine, HeLa cells, compounds added 2 hours before measurement, P<0.05): synergizes with quercetin
- level of synergism in combination with quercetin, compared between oleuropein and oleuropein aglycone (synergisms calculated as in FIG. 1 and FIG. 2, n=6, NS at P<0.05 (Student's t-test)): same level of synergism

Reference: patent US20240000745A1, “COMPOSITIONS AND METHODS USING A COMBINATION OF OLEUROPEIN AND QUERCETIN FOR CELLULAR ENERGY” (SOCIETE DES PRODUITS NESTLE S.A., priority 2020, published 2024)
